According to ChEMBL document CHEMBL1817597, “Antifungal thiopeptide cyclothiazomycin B1 exhibits growth inhibition accompanying morphological changes via binding to fungal cell wall chitin” (Bioorg Med Chem, 2011):
Values after ≈ are worked out from the molar mass of the structure shown. Active and inactive are the calls of the source. The rule behind the calls is not given here.

Key:
Staphylococcus aureus [1] = experiment: Antimicrobial activity against Staphylococcus aureus NCTC 8530 after 24 hrs by broth microdilution method; assay type: functional, organism-based
Staphylococcus aureus [2] = experiment: Antimicrobial activity against Staphylococcus aureus IFO 12732 after 24 hrs by broth microdilution method; assay type: functional, organism-based
Proteus vulgaris = experiment: Antimicrobial activity against Proteus vulgaris IFO 3851 after 24 hrs by broth microdilution method; assay type: functional, organism-based
Bacillus subtilis = experiment: Antimicrobial activity against Bacillus subtilis IFO 3007 after 24 hrs by broth microdilution method; assay type: functional, organism-based
Escherichia coli = experiment: Antimicrobial activity against Escherichia coli IFO 3545 after 24 hrs by broth microdilution method; assay type: functional, organism-based
Candida albicans = experiment: Antimicrobial activity against Candida albicans IFO 1061 after 24 hrs by broth microdilution method; assay type: functional, organism-based
Mucor mucedo [3] = experiment: Antimicrobial activity against Mucor mucedo IFO 7684 after 24 hrs by broth microdilution method; assay type: functional; conditions: IFO 7684, 24 h
Mucor javanicus [4] = experiment: Antimicrobial activity against Mucor javanicus IFO 4569 after 24 hrs by broth microdilution method; assay type: functional; conditions: IFO 4569, 24 h
Fusarium oxysporum [5] = experiment: Antimicrobial activity against Fusarium oxysporum IFO 7152 after 24 hrs by broth microdilution method; assay type: functional; conditions: IFO 7152, 24 h
Fusarium solani [6] = experiment: Antimicrobial activity against Fusarium solani NBRC 5899 after 24 hrs by broth microdilution method; assay type: functional; conditions: NBRC 5899, 24 h
Fusarium solani [7] = experiment: Antimicrobial activity against Fusarium solani NBRC 8505 after 24 hrs by broth microdilution method; assay type: functional; conditions: NBRC 8505, 24 h
[8] = test system: Fusarium sporotrichioides; experiment: Antimicrobial activity against Fusarium sporotrichioides NBRC 33236 after 24 hrs by broth microdilution method; assay type: functional; conditions: NBRC 33236, 24 h
Fusarium avenaceum = experiment: Antimicrobial activity against Fusarium avenaceum NBRC 33237 after 24 hrs by broth microdilution method; assay type: functional; conditions: NBRC 33237, 24 h
Fusarium graminearum [9] = experiment: Antimicrobial activity against Gibberella zeae NBRC 8850 after 24 hrs by broth microdilution method; assay type: functional; conditions: NBRC 8850, 24 h
Fusarium fujikuroi [10] = experiment: Antimicrobial activity against Gibberella fujikuroi NBRC 6349 after 24 hrs by broth microdilution method; assay type: functional; conditions: NBRC 6349, 24 h
Penicillium chrysogenum [11] = experiment: Antimicrobial activity against Penicillium chrysogenum IFO 4626 after 24 hrs by broth microdilution method; assay type: functional; conditions: IFO 4626, 24 h
Aspergillus niger [12] = experiment: Antimicrobial activity against Aspergillus niger ATCC 6275 after 24 hrs by broth microdilution method; assay type: functional; conditions: ATCC 6275, 24 h
Aspergillus fumigatus = experiment: Antimicrobial activity against Aspergillus fumigatus IFO 5840 after 24 hrs by broth microdilution method; assay type: functional; conditions: IFO 5840, 24 h
Neurospora sitophila = experiment: Antimicrobial activity against Neurospora sitophila DSM 1130 after 24 hrs by broth microdilution method; assay type: functional; conditions: DSM 1130, 24 h
Rhizopus arrhizus = experiment: Antimicrobial activity against Rhizopus oryzae IFO 4766 after 24 hrs by broth microdilution method; assay type: functional; conditions: IFO 4766, 24 h
Mucor javanicus [13] = experiment: Antimicrobial activity against Mucor javanicus IFO 4569 at <6.55 uM after 24 hrs by broth microdilution method; assay type: functional
Fusarium oxysporum [14] = experiment: Antimicrobial activity against Fusarium oxysporum NBRC 5942 at <6.55 uM after 24 hrs by broth microdilution method; assay type: functional, organism-based
Fusarium oxysporum [15] = experiment: Antimicrobial activity against Fusarium oxysporum NBRC 30700 at <6.55 uM after 24 hrs by broth microdilution method; assay type: functional, organism-based
Fusarium solani [16] = experiment: Antimicrobial activity against Fusarium solani NBRC 5899 at <6.55 uM after 24 hrs by broth microdilution method; assay type: functional, organism-based
[17] = test system: Fusarium sporotrichioides; experiment: Antimicrobial activity against Fusarium sporotrichioides NBRC 33236 at <6.55 uM after 24 hrs by broth microdilution method; assay type: functional
Fusarium graminearum [18] = experiment: Antimicrobial activity against Gibberella zeae NBRC 8850 at <6.55 uM after 24 hrs by broth microdilution method; assay type: functional, organism-based
Fusarium fujikuroi [19] = experiment: Antimicrobial activity against Gibberella fujikuroi NBRC 6349 at <6.55 uM after 24 hrs by broth microdilution method; assay type: functional, organism-based
Penicillium chrysogenum [20] = experiment: Antimicrobial activity against Penicillium chrysogenum IFO 4626 at <6.55 uM after 24 hrs by broth microdilution method; assay type: functional, organism-based
Aspergillus niger [21] = experiment: Antimicrobial activity against Aspergillus niger ATCC 6275 at <6.55 uM after 24 hrs by broth microdilution method; assay type: functional, organism-based
Aspergillus nidulans = experiment: Antimicrobial activity against Aspergillus nidulans FGSC A4 at <6.55 uM after 24 hrs by broth microdilution method; assay type: functional, organism-based
Mucor mucedo [22] = experiment: Induction of morphological changes in Mucor mucedo IFO 7684 assessed as thickening of hyphae at MIC after 24 hrs by microscopic analysis; assay type: functional, organism-based
Mucor mucedo [23] = experiment: Induction of morphological changes in Mucor mucedo IFO 7684 assessed as abnormal hyphae branching at MIC after 24 hrs by microscopic analysis; assay type: functional, organism-based
HL-60 = experiment: Cytotoxicity against human HL60 cells up to 65.5 uM after 24 hrs by Alamar blue assay; assay type: cell-based; conditions: hl-60, 24 h
THP-1 = experiment: Cytotoxicity against human THP1 cells up to 65.5 uM after 24 hrs by Alamar blue assay; assay type: cell-based; conditions: thp-1, 24 h
LLC-PK1 = experiment: Cytotoxicity against pig LLC-PK1 cells up to 65.5 uM after 24 hrs by Alamar blue assay; assay type: cell-based, Sus scrofa; conditions: llc-pk1, 24 h
NIH3T3 = experiment: Cytotoxicity against mouse NIH/3T3 cells up to 65.5 uM after 24 hrs by Alamar blue assay; assay type: cell-based; conditions: nih3t3, 24 h
Fusarium oxysporum [24] = experiment: Antifungal activity against Fusarium oxysporum NBRC 5942 under hyperosmotic shock at 0.026 uM after 2 days by paper disc method; assay type: functional, organism-based
Mucor mucedo [25] = experiment: Antifungal activity against Mucor mucedo IFO 7684 under hypoosmotic shock assessed as increase of fragility of organism at 0.026 uM after 24 hrs measured after distilled water treatment for 10 mins by microscopic analysis; assay type: functional, organism-based
Fusarium oxysporum [26] = experiment: Antifungal activity against Fusarium oxysporum NBRC 5942 under hypoosmotic shock assessed as increase of fragility of organism at 0.026 uM after 24 hrs measured after distilled water treatment for 10 mins by microscopic analysis; assay type: functional, organism-based
Mucor mucedo [27] = experiment: Inhibition of chitin synthase in Mucor mucedo IFO 7684 assessed as incorporation of GlcNAc from [14C]-UDP-GlcNAc into acid-insoluble fractions at 4 ug/ml after 55 mins by liquid scintillation counting
Mucor mucedo [28] = experiment: Inhibition of DNA synthesis in Mucor mucedo IFO 7684 assessed as [8-14C]-adenine uptake into acid-insoluble fractions at 0.13 uM after 25 mins by liquid scintillation counting; assay type: functional; conditions: IFO 7684, 25 min
[29] = Binding affinity to chitosan at 6.55 uM after 30 mins by HPLC analysis
[30] = Binding affinity to curdlan at 6.55 uM after 30 mins by HPLC analysis
Mucor mucedo [31] = experiment: Antimicrobial activity against Mucor mucedo IFO 7684 after 24 hrs by broth microdilution method in presence of 100 uM of PKA activator dbcAMP; assay type: functional; conditions: IFO 7684, 24 h
Mucor mucedo [32] = experiment: Effect on cell wall re-generation in Mucor mucedo IFO 7684 spheroplasts at 0.026 uM after 12 hrs by microscopic analysis; assay type: functional
Mucor mucedo [33] = experiment: Effect on cell wall re-generation in Mucor mucedo IFO 7684 spheroplasts under hyperosmotic condition at 0.026 uM after 18 hrs by microscopic analysis; assay type: functional

## C=C1NC(=O)[C@H]2CSC(=N2)c2csc(n2)-c2ccc3c(n2)[C@H](C)NC(=O)[C@@H]2CCCN2C(=O)/C(=C/C)NC(=O)CNC(=O)[C@H](CCCNC(=N)N)NC(=O)C(C)(NC(=O)/C(=C/C)NC(=O)C2CSC(=N2)[C@H](CC(N)=O)NC3=O)SC[C@@H](C(=O)O)NC(=O)[C@H]2CSC(=N2)c2csc(n2)-c2csc1n2 [CYCLOTHIAZOMYCIN B1]
Staphylococcus aureus [1]
  Activity: inactive
Staphylococcus aureus [2]
  Activity: inactive
Proteus vulgaris
  Activity: inactive
Bacillus subtilis
  Activity: inactive
Escherichia coli
  Activity: inactive
Candida albicans
  Activity: inactive
Mucor mucedo [3]
  MIC: 0.039 mg/L (≈ 0.0255 µM)
Mucor javanicus [4]
  MIC: 0.078 mg/L (≈ 0.051 µM)
Fusarium oxysporum [5]
  MIC: 0.25 mg/L (≈ 0.164 µM)
Fusarium solani [6]
  MIC: 0.25 mg/L (≈ 0.164 µM)
Fusarium solani [7]
  MIC: 0.25 mg/L (≈ 0.164 µM)
[8]
  MIC: 0.031 mg/L (≈ 0.0203 µM)
Fusarium avenaceum
  MIC: 0.25 mg/L (≈ 0.164 µM)
Fusarium graminearum [9]
  MIC: 0.063 mg/L (≈ 0.0412 µM)
Fusarium fujikuroi [10]
  MIC: 0.25 mg/L (≈ 0.164 µM)
Penicillium chrysogenum [11]
  MIC: 0.63 mg/L (≈ 0.412 µM)
Aspergillus niger [12]
  MIC: > 1000 mg/L
Aspergillus fumigatus
  MIC: > 1000 mg/L
Neurospora sitophila
  MIC: > 1000 mg/L
Rhizopus arrhizus
  MIC: > 1000 mg/L
Mucor javanicus [13]
  Activity: inactive
Fusarium oxysporum [14]
  Activity: inactive
Fusarium oxysporum [15]
  Activity: inactive
Fusarium solani [16]
  Activity: inactive
[17]
  Activity: inactive
Fusarium graminearum [18]
  Activity: inactive
Fusarium fujikuroi [19]
  Activity: inactive
Penicillium chrysogenum [20]
  Activity: inactive
Aspergillus niger [21]
  Activity: inactive
Aspergillus nidulans
  Activity: inactive
Mucor mucedo [22]
  Activity: Active
Mucor mucedo [23]
  Activity: Active
HL-60
  Activity: Non-toxic
THP-1
  Activity: Non-toxic
LLC-PK1
  Activity: Non-toxic
NIH3T3
  Activity: Non-toxic
Fusarium oxysporum [24]
  Activity: inactive
Mucor mucedo [25]
  Activity: Active
Fusarium oxysporum [26]
  Activity: Active
Mucor mucedo [27]
  inhibition: inactive
Mucor mucedo [28]
  inhibition at 0.13 µM: 84%
[29]
  Activity: inactive
[30]
  Activity: inactive
Mucor mucedo [31]
  MIC: 0.013 µM
Mucor mucedo [32]
  Activity: Active
Mucor mucedo [33]
  Activity: inactive
